Literature values, collected in patent US11766458B2, “Method and a dietary composition on regulation, treatment, and prevention of obesity” (priority 2021, dated 2023).

Assays:
[1] = system: DIO C57BL/6 mice
[2] = Nutrition & Diabetes volume 11, Article number: 3, 2021

Row | SMILES | GLP-1 secretion ([1]; oral 1 g/kg 15 minutes before OGTT) | Glucose resistance ([1]; oral 1 g/kg 15 minutes before OGTT (2 g glucose/kg bw)) | Energy intake (food diary) (after L-arginine treatment) | Release of plasma PYY (healthy people, oral 17.1 mmol, after unlimited meals, p<0.001) | Release of plasma GLP-1 (healthy people, oral 17.1 mmol, after unlimited meals, p<0.05) | Gastric emptying [2]
1 | N=C(N)NCCC[C@H](N)C(=O)O [L-arginine] | induces GLP-1 secretion | improves glucose resistance | less energy intake | stimulated | stimulated | 
2 | N[C@@H](Cc1c[nH]c2ccccc12)C(=O)O [tryptophan] |  |  |  |  |  | delays the gastric emptying
